For this experiment, the system named is HeLa Cells. As to the kind of experiment: HeLa GI50 determination (SRB growth inhibition). The conditions noted are these: 48 h; human cervical carcinoma cell line HeLa S-3; 2 days of treatment; sulforhodamine B staining. The experiment is classed as cell-based. The procedure: A. HeLa GI50 Determinations
Growth inhibition (GI50) values were measured on the human cervical carcinoma cell line, HeLa S-3, which were selected for growth on plastic. The HeLa cell assay was based on the description of Skehan et al., J. Natl. Cancer Inst., 82:1107-12 (1990), which is hereby incorporated by reference in its entirety. HeLa cells were plated at 2×10^4 cells/well in 96 well plates. One day later, a control plate was fixed by the addition of TCA to 5%. After five rinses with tap water, the plate was air-dried and stored at 4° C. Test compounds were added to the remaining plates at 10-fold dilutions. Two days later, all plates were fixed as described above. Cells were then stained by the addition of 100 μL per well of 0.4% sulforhodamine B (SRB) in 1% acetic acid for 30 min at 4° C. Wells were then quickly rinsed 5× with 1% acetic acid and allowed to air dry. The SRB was then solubilized by the addition of 100 μL per well of unbuffered 10 mM Tris base. Dye was quantified by measuring absorbance at 490 nm on a Molecular Devices microplate reader. Growth inhibition was calculated according to the following equation: GI=100×(T−T0)/(C−T0), where the optical density (OD) of the test well after 2 days of treatment was T, the OD of the wells in the control plate on day 0 was T0 and C was the OD of untreated wells. […]

As a reminder, the GI50 is the concentration that inhibits growth by half. The low end stands for more potent growth inhibition, the high end for less potent growth inhibition. Compound `CCc1ccc2[nH]c3c(c2c1)CN1CC(C(C)(F)F)C[C@@H](C1)C[C@]3(C(=O)OC)c1cc2c(cc1OC)N(C)[C@H]1[C@@](O)(C(=O)OC)[C@H](OC(C)=O)[C@]3(CC)C=CCN4CC[C@]21[C@@H]43` (some centres unmarked) [Example 3, 11′-Ethylvinflunine] registered a concentration for 50% growth inhibition (GI50) of 170 nM.

Take `CC[C@]12C=CCN3CC[C@@]4(c5cc([C@@]6(C(=O)OC)C[C@H]7CC(C(C)(F)F)CN(Cc8c6[nH]c6ccc(SC)cc86)C7)c(OC)cc5N(C)[C@H]4[C@@](O)(C(=O)OC)[C@@H]1OC(C)=O)[C@@H]32` (some centres unmarked) [Example 12, 11′-(Methylsulfanyl)vinflunine]: the GI50 turned out to be 6.93 nM.

The record behind these values is patent publication US20080125451A1, “VINORELBINE DERIVATIVES” (AMR TECHNOLOGY, INC., priority 2006, published 2008).
